Series [1] in a line: Cytotoxicity against human MCF10A cells assessed as cell viability up to 50 uM after 48 hrs by MTT assay. It counts as cell-based. The note with it: mcf-10a. (In general: Tetrazolium dyes change colour on reduction, which living cells bring about.)
Series [2] can be described thus: Cytotoxicity against human HK2 cells assessed as cell viability up to 50 uM after 48 hrs by MTT assay. Format: cell-based. The settings on record: hk-2, 48 h.

Positions of bridges follow the written chain, without caps; N, C: chain ends. Residues, ends and D or L forms follow the SMILES beside them.

In ChEMBL document CHEMBL3108750, “Solution structure of a sponge-derived cystine knot peptide and its notable stability” (J Nat Prod, 2014) one finds Activity data, which are given here for 1 molecule.

As to `CC[C@H](C)[C@H](NC(=O)[C@@H](NC(=O)[C@H](Cc1ccc(O)cc1)NC(=O)[C@@H]1CSSC[C@@H]2NC(=O)[C@@H]3CCCN3C(=O)[C@H](CC(N)=O)NC(=O)[C@H](Cc3ccccc3)NC(=O)[C@H](CCC(=O)O)NC(=O)[C@H](C(C)C)NC(=O)[C@H](CC(=O)O)NC(=O)[C@@H]3CSSC[C@H](NC(=O)[C@H]([C@@H](C)O)NC(=O)[C@H](CC(C)C)NC(=O)[C@@H]4CCCN4C(=O)[C@@H]4CCCN4C(=O)[C@H](CSSC[C@H](N)C(=O)N4CCC[C@H]4C(=O)NCC(=O)N[C@@H](CCC(=O)O)C(=O)NCC(=O)N[C@@H](CCC(=O)O)C(=O)N[C@@H](CCC(N)=O)C(=O)N3)NC2=O)C(=O)N[C@@H]([C@@H](C)CC)C(=O)N2CCC[C@H]2C(=O)NCC(=O)N[C@@H](CC(=O)O)C(=O)N2CCC[C@H]2C(=O)N[C@@H](Cc2ccc(O)cc2)C(=O)NCC(=O)N[C@@H]([C@@H](C)CC)C(=O)N1)[C@@H](C)CC)C(=O)O` (H-CPGEGEQCDVEFNPCCPPLTCIPGDPYGICYII-OH; disulfide 1-16, 8-21, 15-30), the Activity entry in series [1] and in series [2] was “Non-toxic” in each case.
